Results on two substances are retold here after US20100267002A1, “PEPTIDE HAVING LIFE-LENGTHENING EFFECT ON CELLS” (National Institute of Advanced Industrial Science and …, priority 2009, published 2010).

The test system of assay [1] is HepG2 cells. The assay is described as follows: HepG2 cell preservation at 4° C., survival ratio by amount of LDH released. In kind it is cell-based, human. Particulars: HepG2, 4° C., peptide 10 mg/ml in EC solution, 11 repetitions; for survival ratio based on the assay of the amount of LDH: 24 hours. Here is the method:
(§1) Nfe6-, Nfe8-, and Nfe11-based confirmation of cell protecting effects and cell preserving effects was performed with the use of the HepG2 cell line (FIG. 3) derived from the human liver (purchased from Riken Cell Bank). The experiment was carried out using the HepG2 cells that had been cultured for about a week in Dulbecco's Modified Eagle's Medium (DMEM) (Sigma-Aldrich, Japan) (a culture solution) containing 10% bovine serum (FBS, Gibco) and 50 μg/ml penicillin/streptomycin (Invitrogen). FBS was inactivated by heating at 56° C. for 30 minutes and then used. Culture was conducted in a CO2 incubator (SANYO) using a flask in an atmosphere of 5% CO2 at 37° C. The HepG2 cells that had reached subconfluent conditions (i.e., conditions immediately before the container becomes filled with cells) were treated with a trypsin solution (Wako Pure Chemical Industries, Ltd.) to prepare a cell suspension. The cell suspension was sowed on a cell culture microplate, culture was conducted in a CO2 incubator (5% CO2, 37° C.) overnight, and the resultant was then used for the preservation experiment. In all the experiments described below, cells were preserved at 4° C.
Further, the cell survival ratio after 24-hour-preservation was estimated using the LDH Cytotoxicity Detection Kit (Takara Bio Inc.). The LDH amount was measured by sowing the cell suspension prepared by the method described in (5) on a 4-well cell culture plate (Nalge Nunc International K.K.) and subjecting the resultants to the preservation experiment at 4° C. for 24 hours and for 48 hours. […] The amount of red formazan generated was evaluated by assaying the absorbance at 490 nm using a microplate reader (Sunrise Remote, Wako Pure Chemical Industries, Ltd.). In this experiment, the LDH amount when the HepG2 cells had been preserved for 24 hours using a cell preservative solution containing 1% Triton X (the A2 solution) was designated as 100% and the percentage of LDH in the experiment was determined based thereon.
In general terms: Release of lactate dehydrogenase indicates damage to the cell membrane.

The subject of assay [2] is HepG2 cells. The assay is described as follows: HepG2 cell preservation at 4° C., survival ratio by Cellstain (Calcein-AM/PI) fluorescent double staining. It counts as cell-based, human. As to conditions: for cell survival ratio (fluorescent dye observation): HepG2, 4° C., 48 hours, peptide 10 mg/ml in Euro-Collins solution. Here is the method:
as §1
The cells that had been subjected to preservation treatment for 48 hours were stained with Cellstain (Cell Double Staining Kit, available from Dojindo Laboratories), and the cells were observed under a fluorescent microscope (Olympus IX70) to evaluate the survival ratio. Cellstain (Cell Double Staining Kit) involves the use of Calcein-AM fluorescent dye, which stains viable cells, in combination with PI (Propidium iodide) fluorescent dye, which stains dead cells. […] Thereafter, the cell culture plate was mounted on a fluorescent microscope, and “viable cells stained yellow green” were observed using a fluorescence cube for GFP (excitation filter: BP460-480; dichroic mirror: DM450; absorption filter: BA460-510). Also, “dead cells stained red” were observed using a fluorescence cube for YFP (excitation filter: BP490-500; dichroic mirror: DM505; absorption filter: BA515-560).

The subject of assay [3] is fertilized eggs of Japanese Black Cattle. The assay is described as follows: preservation of fertilized eggs of Japanese Black Cattle at 4° C., survival by microscopic observation. In kind it is cell-based. The protocol:
The fertilized eggs of Japanese Black Cattle were subjected to the preservation experiment at 4° C. for 72 to 96 hours (3 to 4 days) using Nfe11, and the survival ratio of the fertilized eggs after preservation was assayed. At the outset, the follicle-stimulating hormones (FSH) were used to subject superovulated […] cattle to artificial insemination. Seven days thereafter, 3 to 6 fertilized eggs at the initial blastocyst stage were removed from the salpinx of the […] cattle and introduced into a straw having a diameter of 400 micrometers. In this case, Nfe11 powder samples were dissolved in a phosphate buffer (PBS) to a concentration of 5 mg/ml or 10 mg/ml, and the recovered fertilized eggs were soaked in the resulting solutions. Both ends of the straw were sealed, the resultant was allowed to stand in a refrigerator at 4° C., and the preservation experiment was carried out for 72 hours to 96 hours. Survival of the fertilized eggs after the preservation experiment was evaluated using a microscopic observation. As a result, the data as shown below were obtained.

In assay [4] the test system is HepG2 cells. The assay is described as follows: HepG2 cell preservation at 4° C., survival ratio by amount of ATP (CellTiter-Glo). It counts as cell-based, human. As to conditions: HepG2, 4° C., 48 hours, peptide 10 mg/ml in EC solution, 11 repetitions. Here is the method: Nfe6-, Nfe8-, and Nfe11-based confirmation of cell protecting effects and cell preserving effects was performed with the use of the HepG2 cell line (FIG. 3) derived from the human liver (purchased from Riken Cell Bank). The experiment was carried out using the HepG2 cells that had been cultured for about a week in Dulbecco's Modified Eagle's Medium (DMEM) (Sigma-Aldrich, Japan) (a culture solution) containing 10% bovine serum (FBS, Gibco) and 50 μg/ml penicillin/streptomycin (Invitrogen). FBS was inactivated by heating at 56° C. for 30 minutes and then used. Culture was conducted in a CO2 incubator (SANYO) using a flask in an atmosphere of 5% CO2 at 37° C. […]
Since the metabolism is reduced at low temperatures, substantially no ATP is synthesized in cells. […] The ATP concentration was measured using a 96-well cell culture plate for emission measurement (Nalge Nunc International K.K.) and the HepG2 cells prepared by the method described in (5). […] ATP concentration after preservation was evaluated by adding a luminescent reagent (CellTiter-Glo, Promega) to wells and assaying the luminescent intensity using a microplate reader (Wallac 1420 ARVOsx, PerkinElmer Life Sciences, Japan). […]
A general note: Cellular ATP, detected with luciferase, serves as a proxy for viable cell number.

Assay [5] has as its system HepG2 cells. The assay is described as follows: HepG2 cell preservation at 4° C., survival ratio by WST-8 (Cell Counting Kit-8). In kind it is cell-based, human. Particulars: HepG2, 4° C., 48 hours, peptide 10 mg/ml in EC solution, 11 repetitions. The protocol:
as §1, with “The cell suspension was sowed on a cell culture microplate, culture was conducted in a CO2 incubator (5% CO2, 37° C.) overnight, and the resultant was then used for the preservation experiment. In all the experiments described below, cells were preserved at 4° C.” left out
[…] The amount of water-soluble formazan in the medium was evaluated by measuring the absorbance at 450 nm using a microplate reader (Sunrise Remote, Wako Pure Chemical Industries, Ltd.), and the percentage of viable cells after the cell preservation experiment was determined using the number of cells determined by adding WST-8 to the HepG2 cells before the preservation experiment as a control (100%).
For orientation: Tetrazolium assays rely on reduction of a dye to a coloured formazan, in cell work by metabolically active cells.

With “Nfe6: recombinant Nfe peptide from Zoarces elongatus Kner, SEQ ID NO: 2, no thermal hysteresis activity [reference compound]”, the “survival ratio based on the assay of the amount of LDH” value with HepG2 cells [1] is about 56%. Moreover, the “cell survival ratio (fluorescent dye observation)” value in the assay on HepG2 cells [2] is on record as “about 40%”.
Regarding “Nfe11: recombinant 66-residue peptide from Zoarces elongatus Kner, amino acid sequence SEQ ID NO: 6, no thermal hysteresis activity”, the “survival ratio of cattle fertilized eggs” value in assay [3] (5 mg/ml in PBS, 72 hours) worked out at 67%; in assay [3] (5 mg/ml in PBS, 96 hours), 50%; in assay [3] (10 mg/ml in PBS, 96 hours), 50%. Also, in the assay on HepG2 cells [1], the “survival ratio based on the assay of the amount of LDH” value is about 34%. Moreover, the “cell survival ratio, amount of LDH released (100 minus LDH value)” value with HepG2 cells [1] (48 hours) was about 62%. In addition, the “cell survival ratio, amount of ATP” value with HepG2 cells [4] was 60%. Further, in the assay with HepG2 cells [2], the “cell survival ratio (fluorescent dye observation)” value is given as “about 75%”. For the same substance, the cell protection effects result in the assay with HepG2 cells [2] (HepG2 cell lines, 10 mg/ml in Euro-Collins solution) is on record as “sufficient cell protection effects”. Besides, the “survival ratio of HepG2 cells, amount of WST-8” value in the assay on HepG2 cells [5] was about 48%.
